Target: hENPP2 (Homo sapiens, UniProt Q13822)
Experiment: Human ENPP2 (hENPP2) biochemical assay using LPC as substrate
Settings: 150 µM LPC (palmitoyl 16:0), 37°C for 30 min
Outline: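 IC50 came from compound series (top 50 µM, 1/3 steps) incubated 30 min at 37°C with 1 or 3 µg/mL final enzyme and palmitoyl LPC added at 150 µM, pH 8.5 Tris buffer with Ca2+. Choline output measured as quinoneimine dye at 555 nm via coupled oxidase/HRP/TOOS detection.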

IC50 [nM]	Structure (SMILES)
100 to 500	Cc1cc(C)cc(Nc2ncc3c(n2)CN(C2CCN(C(=O)c4cnc5[nH]nnc5c4)CC2C)C3)c1 (centres unmarked) [compound 65, [4-[2-(3,5-dimethylanilino)-5,7-dihydropyrrolo[3,4-d]pyrimidin-6-yl]-3-methyl-1-piperidyl]-(3H-triazolo[4,5-b]pyridin-6-yl)methanone]
100 to 500	Cc1cc(C)cc(Nc2ncc3c(n2)CN(C2CN(C(=O)c4ccc5nn[nH]c5c4)CC2C)C3)c1 (centres unmarked) [compound 77, 3H-benzotriazol-5-yl-[3-[2-(3,5-dimethylanilino)-5,7-dihydropyrrolo[3,4-d]pyrimidin-6-yl]-4-methyl-pyrrolidin-1-yl]methanone]
0.01 to 100	Cc1cc(C)cc(Nc2ncc3c(n2)CN(C2CCN(C(=O)c4cc5[nH]nnc5cc4F)CC2)C3)c1 [compound 79, [4-[2-(3,5-dimethylanilino)-5,7-dihydropyrrolo[3,4-d]pyrimidin-6-yl]-1-piperidyl]-(6-fluoro-3H-benzotriazol-5-yl)methanone]
0.01 to 100	Cc1cc(C)cc(Nc2ncc3c(n2)CN(C2CN(C(=O)c4cc5[nH]nnc5cc4F)C2)C3)c1 [compound 80, [3-[2-(3,5-dimethylanilino)-5,7-dihydropyrrolo[3,4-d]pyrimidin-6-yl]azetidin-1-yl]-(6-fluoro-3H-benzotriazol-5-yl)methanone]
0.01 to 100	COc1cc2[nH]nnc2cc1C(=O)N1CC(N2Cc3cnc(Nc4cc(C)cc(C)c4)nc3C2)C1 [compound 81, [3-[2-(3,5-dimethylanilino)-5,7-dihydropyrrolo[3,4-d]pyrimidin-6-yl]azetidin-1-yl]-(6-methoxy-1H-benzotriazol-5-yl)methanone]
100 to 500	Cc1cc(C)cc(Nc2ncc3c(n2)CN(C2CN(C(=O)c4cc5nn[nH]c5cc4F)CC2C)C3)c1 (centres unmarked) [compound 82, [3-[2-(3,5-dimethylanilino)-5,7-dihydropyrrolo[3,4-d]pyrimidin-6-yl]-4-methyl-pyrrolidin-1-yl]-(6-fluoro-1H-benzotriazol-5-yl)methanone]
100 to 500	COc1cc2[nH]nnc2cc1C(=O)N1CC(C)C(N2Cc3cnc(Nc4cc(C)cc(C)c4)nc3C2)C1 (centres unmarked) [compound 83, [3-[2-(3,5-dimethylanilino)-5,7-dihydropyrrolo[3,4-d]pyrimidin-6-yl] -4-methyl-pyrrolidin-1-yl]-(6-methoxy-1H-benzotriazol-5-yl)methanone]
0.01 to 100	Cc1cc(C)cc(Nc2ncc3c(n2)CCN(C2CN(C(=O)c4ccc5nn[nH]c5c4)CC2C)C3)c1 (centres unmarked) [compound 87, 3H -benzotriazol-5-yl-[3-[2-(3,5-dimethylanilino)-7,8-dihydro-5H-pyrido[4,3-d]pyrimidin-6-yl] -4-methyl-pyrrolidin-1-yl]methanone]
0.01 to 100	COc1cc2[nH]nnc2cc1C(=O)N1CC(C)C(N2CCc3nc(Nc4cc(C)cc(C)c4)ncc3C2)C1 (centres unmarked) [compound 88, [3-[2-(3,5-dimethylanilino)-7,8-dihydro-5H-pyrido[4,3-d]pyrimidin-6-yl]-4-methyl-pyrrolidin-1-yl]-(6-methoxy-1H-benzotriazol-5-yl)methanone]

More lines, now with the values behind:

Structure (SMILES)	IC50 [nM]
Cc1cc(C)cc(Nc2ncc3c(n2)CN(C2CCN(C(=O)c4ccc5[nH]c(=S)oc5c4)CC2)C3)c1 [compound 61, [4-[2-(3,5-dimethylanilino)-5,7-dihydropyrrolo[3,4-d]pyrimidin-6-yl]-1-piperidyl]-(2-thioxo-3H-1,3-benzoxazol-6-yl)methanone]	0.01 to 100
Cc1cc(C)cc(Nc2ncc3c(n2)CN(C2CN(C(=O)c4ccc5[nH]c(=S)oc5c4)C2)C3)c1 [compound 62, [3-[2-(3,5-dimethylanilino)-5,7-dihydropyrrolo[3,4-d]pyrimidin-6-yl]azetidin-1-yl]-(2-thioxo-3H-1,3-benzoxazol-6-yl)methanone]	0.01 to 100
Cc1cc(C)cc(Nc2ncc3c(n2)CN(C2CC4CC2CN4C(=O)c2ccc4[nH]nnc4c2)C3)c1 (centres unmarked) [compound 63, 1H-benzotriazol-5-yl-[5-[2-(3,5-dimethylanilino)-5,7-dihydropyrrolo[3,4-d]pyrimidin-6-yl]-2-azabicyclo[2.2.1]heptan-2-yl]methanone]	> 1000
Cc1cc(C)cc(Nc2ncc3c(n2)CN(C2CC4CC2CN4C(=O)c2ccc4[nH]c(=O)oc4c2)C3)c1 (centres unmarked) [compound 64, 6-[5-[2-(3,5-dimethylanilino)-5,7-dihydropyrrolo[3,4-d]pyrimidin-6-yl]-2-azabicyclo[2.2.1]heptane-2-carbonyl]-3H-1,3-benzoxazol-2-one]	> 1000
Cc1cc(C)cc(Nc2ncc3c(n2)CN(C2CC(C)N(C(=O)c4ccc5[nH]nnc5c4)C(C)C2)C3)c1 (centres unmarked) [compound 68, 1H-benzotriazol-5-yl-[4-[2-(3,5-dimethylanilino)-5,7-dihydropyrrolo[3,4-d]pyrimidin-6-yl]-2,6-dimethyl-1-piperidyl]methanone]	> 1000
Cc1cc(C)cc(Nc2ncc3c(n2)CN(C2CCN(C(=O)c4ccc5[nH]c(=O)sc5c4)CC2)C3)c1 [compound 69, 6-[4-[2-(3,5-dimethylanilino)-5,7-dihydropyrrolo[3,4-d]pyrimidin-6-yl]piperidine-1-carbonyl]-3H-1,3-benzothiazol-2-one]	0.01 to 100
Cc1cc(C)cc(Nc2ncc3c(n2)CN(C2CN(C(=O)c4ccc5[nH]c(=O)sc5c4)C2)C3)c1 [compound 70, 6-[3-[2-(3,5-dimethylanilino)-5,7-dihydropyrrolo[3,4-d]pyrimidin-6-yl]azetidine-1-carbonyl]-3H-1,3-benzothiazol-2-one]	0.01 to 100
Cc1cc(C)cc(Nc2ncc3c(n2)CN(C2CCN(C(=O)c4ccc(NS(C)(=O)=O)cc4)CC2)C3)c1 [compound 72, N-[4-[4-[2-(3,5-dimethylanilino)-5,7-dihydropyrrolo[3,4-d]pyrimidin-6-yl]piperidine-1-carbonyl]phenyl]methanesulfonamide]	> 1000
Cc1cc(C)cc(Nc2ncc3c(n2)CN([C@@H]2CCN(C(=O)c4ccc5[nH]nnc5c4)[C@H](C)C2)C3)c1 [compound 73, 1H-benzotriazol-5-yl-[(2R,4R)-4-[2-(3,5-dimethylanilino)-5,7-dihydropyrrolo[3,4-d]pyrimidin-6-yl]-2-methyl-1-piperidyl]methanone]	0.01 to 100
Cc1cc(C)cc(Nc2ncc3c(n2)CN([C@H]2CCN(C(=O)c4ccc5[nH]nnc5c4)[C@@H](C)C2)C3)c1 [compound 74, 1H-benzotriazol-5-yl-[(2S,4S)-4-[2-(3,5-dimethylanilino)-5,7-dihydropyrrolo[3,4-d]pyrimidin-6-yl]-2-methyl-1-piperidyl]methanone]	0.01 to 100
Cc1cc(C)cc(Nc2ncc3c(n2)CCCN(C2CCN(C(=O)c4ccc5nn[nH]c5c4)CC2)C3)c1 [compound 75, 3H-benzotriazol-5-yl-[4-[2-(3,5-dimethylanilino)-5,7,8,9-tetrahydropyrimido[5,4-c]azepin-6-yl]-1-piperidyl]methanone]	> 1000
Cc1cc(C)cc(Nc2ncc3c(n2)CN(C2[C@@H]4C[C@H]2CN(C(=O)c2ccc5[nH]nnc5c2)C4)C3)c1 (stereo partly drawn) [compound 78, 1H-benzotriazol-5-yl-[(1R,5S)-6-[2-(3,5-dimethylanilino)-5,7-dihydropyrrolo[3,4-d]pyrimidin-6-yl]-3-azabicyclo[3.1.1]heptan-3-yl]methanone]	0.01 to 100
Cc1cc(C)cc(Nc2ncc3c(n2)CN(C2=C(C#N)CN(C(=O)c4ccc5nn[nH]c5c4)C2)C3)c1 [compound 85, 1-(3H-benzotriazole-5-carbonyl)-4-[2-(3,5-dimethylanilino)-5,7-dihydropyrrolo[3,4-d]pyrimidin-6-yl]-2,5-dihydropyrrole-3-carbonitrile]	100 to 500
Cc1cc(C)cc(Nc2ncc3c(n2)CN([C@H]2CCN(C(=O)c4ccc5[nH]nnc5c4)[C@H](C)C2)C3)c1 [compound 92, 1H-benzotriazol-5-yl-[(2R,4S)-4-[2-(3,5-dimethylanilino)-5,7-dihydropyrrolo[3,4-d]pyrimidin-6-yl]-2-methyl-1-piperidyl]methanone]	0.01 to 100
Cc1cc(C)cc(Nc2ncc3c(n2)CN([C@@H]2CCN(C(=O)c4ccc5[nH]nnc5c4)[C@@H](C)C2)C3)c1 [compound 93, 1H-benzotriazol-5-yl-[(2S,4R)-4-[2-(3,5-dimethylanilino)-5,7-dihydropyrrolo[3,4-d]pyrimidin-6-yl]-2-methyl-1-piperidyl]methanone]	0.01 to 100
Cc1cc(C)cc(Nc2ncc3c(n2)CCCN(C2CN(C(=O)c4ccc5[nH]nnc5c4)C2)C3)c1 [compound 94, 1H-benzotriazol-5-yl-[3-[2-(3,5-dimethylanilino)-5,7,8,9-tetrahydropyrimido[5,4-c]azepin-6-yl]azetidin-1-yl]methanone]	> 1000
Cc1cc(C)cc(Nc2ncc3c(n2)C(C)(C)N(C2CN(C(=O)c4ccc5[nH]nnc5c4)C2)C3)c1 [compound 95, 1H-benzotriazol-5-yl-[3-[2-(3,5-dimethylanilino)-7,7-dimethyl-5H-pyrrolo[3,4-d]pyrimidin-6-yl]azetidin-1-yl]methanone]	0.01 to 100
Cc1cc(C)cc(Nc2ncc3c(n2)CCN([C@@H]2CCN(C(=O)c4ccc5[nH]nnc5c4)[C@H](C)C2)C3)c1 [compound 98, 1H-benzotriazol-5-yl-[(2R,4R)-4-[2-(3,5-dimethylanilino)-7,8-dihydro-5H-pyrido[4,3-d]pyrimidin-6-yl]-2-methyl-1-piperidyl]methanone]	100 to 500
COc1cc2[nH]nnc2cc1C(=O)N1CC[C@@H](N2Cc3cnc(Nc4cc(C)cc(C)c4)nc3C2)C[C@H]1C [compound 105, [(2R,4R)-4-[2-(3,5-dimethylanilino)-5,7-dihydropyrrolo[3,4-d]pyrimidin-6-yl]-2-methyl-1-piperidyl]-(6-methoxy-1H-benzotriazol-5-yl)methanone]	0.01 to 100
COc1cc2[nH]nnc2cc1C(=O)N1CCC(N2Cc3cnc(Nc4cc(C)cc(C)c4)nc3C2)CC1 [compound 106, [4-[2-(3,5-dimethylanilino)-5,7-dihydropyrrolo[3,4-d]pyrimidin-6-yl]-1-piperidyl]-(6-methoxy-1H-benzotriazol-5-yl)methanone]	0.01 to 100

From patent EP3782997A1, “FUSED PYRIMIDINE COMPOUNDS AND PHARMACEUTICAL COMPOSITIONS THEREOF FOR THE TREATMENT OF FIBROTIC DISEASES” (Galapagos N.V., priority 2019, dated 2021)
